The source made the active and inactive calls. No cut-off for these calls is given here.
Assays:
[1] = system: Citrobacter freundii; experiment: Antibacterial activity against non-gentamicin-resistant Citrobacter freundii clinical isolate assessed as susceptible isolates after 18 hrs by agar dilution method; assay type: functional
[2] = system: Escherichia coli; experiment: Antibacterial activity against gentamicin-resistant Escherichia coli clinical isolate after 18 hrs by agar dilution method; assay type: functional
[3] = system: Staphylococcus epidermidis; experiment: Antibacterial activity against non-gentamicin-resistant Staphylococcus epidermidis clinical isolate assessed as susceptible isolates after 18 hrs by agar dilution method; assay type: functional
[4] = system: Citrobacter freundii; experiment: Antibacterial activity against gentamicin-resistant Citrobacter freundii clinical isolate assessed as susceptible isolates after 18 hrs by agar dilution method; assay type: functional
[5] = system: Providencia rettgeri; experiment: Antibacterial activity against gentamicin-resistant Proteus rettgeri clinical isolate after 18 hrs by agar dilution method; assay type: functional
[6] = system: Acinetobacter calcoaceticus; experiment: Antibacterial activity against gentamicin-resistant Acinetobacter calcoaceticus clinical isolate after 18 hrs by agar dilution method; assay type: functional
[7] = system: Staphylococcus epidermidis; experiment: Antibacterial activity against gentamicin-resistant Staphylococcus epidermidis clinical isolate after 18 hrs by agar dilution method; assay type: functional
[8] = system: Providencia rettgeri; experiment: Antibacterial activity against non-gentamicin-resistant Proteus rettgeri clinical isolate assessed as susceptible isolates after 18 hrs by agar dilution method; assay type: functional
[9] = system: Staphylococcus aureus; experiment: Antibacterial activity against non-gentamicin-resistant Staphylococcus aureus clinical isolate assessed as susceptible isolates after 18 hrs by agar dilution method; assay type: functional
[10] = system: Citrobacter freundii; experiment: Antibacterial activity against non-gentamicin-resistant Citrobacter freundii clinical isolate after 18 hrs by agar dilution method; assay type: functional
[11] = system: Citrobacter koseri; experiment: Antibacterial activity against gentamicin-resistant Citrobacter diversus clinical isolate after 18 hrs by agar dilution method; assay type: functional
[12] = system: Enterococcus faecalis; experiment: Antibacterial activity against gentamicin-resistant Enterococcus faecalis clinical isolate assessed as susceptible isolates after 18 hrs by agar dilution method; assay type: functional, organism-based
[13] = system: Pseudomonas sp.; experiment: Antibacterial activity against non-gentamicin-resistant Pseudomonas spp. clinical isolate assessed as susceptible isolates after 18 hrs by agar dilution method; assay type: functional
[14] = system: Staphylococcus aureus; experiment: Antibacterial activity against gentamicin-resistant Staphylococcus aureus clinical isolate assessed as susceptible isolates after 18 hrs by agar dilution method; assay type: functional
[15] = system: Acinetobacter calcoaceticus; experiment: Antibacterial activity against non-gentamicin-resistant Acinetobacter calcoaceticus clinical isolate assessed as susceptible isolates after 18 hrs by agar dilution method; assay type: functional
[16] = system: Proteus mirabilis; experiment: Antibacterial activity against non-gentamicin-resistant Proteus mirabilis clinical isolate after 18 hrs by agar dilution method; assay type: functional
[17] = system: Klebsiella pneumoniae; experiment: Antibacterial activity against non-gentamicin-resistant Klebsiella pneumoniae clinical isolate assessed as susceptible isolates after 18 hrs by agar dilution method; assay type: functional
[18] = system: Serratia marcescens; experiment: Antibacterial activity against non-gentamicin-resistant Serratia marcescens clinical isolate assessed as susceptible isolates after 18 hrs by agar dilution method; assay type: functional
[19] = system: Staphylococcus epidermidis; experiment: Antibacterial activity against non-gentamicin-resistant Staphylococcus epidermidis clinical isolate after 18 hrs by agar dilution method; assay type: functional
[20] = system: Haemophilus parainfluenzae; experiment: Antibacterial activity against non-gentamicin-resistant Haemophilus parainfluenzae clinical isolate after 18 hrs by agar dilution method; assay type: functional
[21] = system: Pseudomonas aeruginosa; experiment: Antibacterial activity against gentamicin-resistant Pseudomonas aeruginosa clinical isolate assessed as susceptible isolates after 18 hrs by agar dilution method; assay type: functional
[22] = system: Enterobacter cloacae; experiment: Antibacterial activity against gentamicin-resistant Enterobacter cloacae clinical isolate after 18 hrs by agar dilution method; assay type: functional
[23] = system: Klebsiella aerogenes; experiment: Antibacterial activity against gentamicin-resistant Enterobacter aerogenes clinical isolate after 18 hrs by agar dilution method; assay type: functional
[24] = system: Staphylococcus epidermidis; experiment: Antibacterial activity against gentamicin-resistant Staphylococcus epidermidis clinical isolate assessed as susceptible isolates after 18 hrs by agar dilution method; assay type: functional
[25] = system: Citrobacter koseri; experiment: Antibacterial activity against non-gentamicin-resistant Citrobacter diversus clinical isolate after 18 hrs by agar dilution method; assay type: functional
[26] = system: Escherichia coli; experiment: Antibacterial activity against non-gentamicin-resistant Escherichia coli clinical isolate after 18 hrs by agar dilution method; assay type: functional
[27] = system: Morganella morganii; experiment: Antibacterial activity against non-gentamicin-resistant Morganella morganii clinical isolate after 18 hrs by agar dilution method; assay type: functional
[28] = system: Proteus mirabilis; experiment: Antibacterial activity against gentamicin-resistant Proteus mirabilis clinical isolate after 18 hrs by agar dilution method; assay type: functional
[29] = system: Morganella morganii; experiment: Antibacterial activity against gentamicin-resistant Morganella morganii clinical isolate assessed as susceptible isolates after 18 hrs by agar dilution method; assay type: functional
[30] = system: Serratia marcescens; experiment: Antibacterial activity against non-gentamicin-resistant Serratia marcescens clinical isolate after 18 hrs by agar dilution method; assay type: functional
[31] = system: Citrobacter freundii; experiment: Antibacterial activity against gentamicin-resistant Citrobacter freundii clinical isolate after 18 hrs by agar dilution method; assay type: functional
[32] = system: Morganella morganii; experiment: Antibacterial activity against gentamicin-resistant Morganella morganii clinical isolate after 18 hrs by agar dilution method; assay type: functional
[33] = system: Klebsiella pneumoniae; experiment: Antibacterial activity against gentamicin-resistant Klebsiella pneumoniae clinical isolate assessed as susceptible isolates after 18 hrs by agar dilution method; assay type: functional
[34] = system: Pseudomonas sp.; experiment: Antibacterial activity against gentamicin-resistant Pseudomonas spp. clinical isolate assessed as susceptible isolates after 18 hrs by agar dilution method; assay type: functional
[35] = system: Citrobacter koseri; experiment: Antibacterial activity against non-gentamicin-resistant Citrobacter diversus clinical isolate assessed as susceptible isolates after 18 hrs by agar dilution method; assay type: functional
[36] = system: Providencia rettgeri; experiment: Antibacterial activity against gentamicin-resistant Proteus rettgeri clinical isolate assessed as susceptible isolates after 18 hrs by agar dilution method; assay type: functional
[37] = system: Acinetobacter calcoaceticus; experiment: Antibacterial activity against gentamicin-resistant Acinetobacter calcoaceticus clinical isolate assessed as susceptible isolates after 18 hrs by agar dilution method; assay type: functional
[38] = system: Escherichia coli; experiment: Antibacterial activity against gentamicin-resistant Escherichia coli clinical isolate assessed as susceptible isolates after 18 hrs by agar dilution method; assay type: functional
[39] = system: Staphylococcus aureus; experiment: Antibacterial activity against gentamicin-resistant Staphylococcus aureus clinical isolate after 18 hrs by agar dilution method; assay type: functional
[40] = system: Haemophilus parainfluenzae; experiment: Antibacterial activity against non-gentamicin-resistant Haemophilus parainfluenzae clinical isolate assessed as susceptible isolates after 18 hrs by agar dilution method; assay type: functional, organism-based
[41] = system: Pseudomonas sp.; experiment: Antibacterial activity against gentamicin-resistant Pseudomonas spp. clinical isolate after 18 hrs by agar dilution method; assay type: functional
[42] = system: Proteus mirabilis; experiment: Antibacterial activity against gentamicin-resistant Proteus mirabilis clinical isolate assessed as susceptible isolates after 18 hrs by agar dilution method; assay type: functional
[43] = system: Escherichia coli; experiment: Antibacterial activity against non-gentamicin-resistant Escherichia coli clinical isolate assessed as susceptible isolates after 18 hrs by agar dilution method; assay type: functional
[44] = system: Klebsiella aerogenes; experiment: Antibacterial activity against gentamicin-resistant Enterobacter aerogenes clinical isolate assessed as susceptible isolates after 18 hrs by agar dilution method; assay type: functional
[45] = system: Serratia marcescens; experiment: Antibacterial activity against gentamicin-resistant Serratia marcescens clinical isolate assessed as susceptible isolates after 18 hrs by agar dilution method; assay type: functional
[46] = system: Serratia marcescens; experiment: Antibacterial activity against gentamicin-resistant Serratia marcescens clinical isolate after 18 hrs by agar dilution method; assay type: functional

Q: GENTAMICIN was tested. Which Activity [1] did it give?
A: 100%

Q: What about the MIC50 [2] of the same sequence?
A: 64 mg/L

Q: And the MIC90 [2]?
A: > 128 mg/L

Q: And the Activity [3]?
A: 92.5%

Q: What about the Activity [4] of the same sequence?
A: 0%

Q: What about the MIC50 [5] of the same sequence?
A: 64 mg/L

Q: What about the MIC90 [5] of the same sequence?
A: 128 mg/L

Q: And the MIC50 [6]?
A: > 128 mg/L

Q: What about the MIC90 [6] of the same sequence?
A: > 128 mg/L

Q: And the MIC50 [7]?
A: 16 mg/L

Q: What about the MIC90 [7] of the same sequence?
A: > 128 mg/L

Q: And the Activity [8]?
A: 84.6%

Q: What about the Activity [9] of the same sequence?
A: 85.7%

Q: What about the MIC50 [10] of the same sequence?
A: 0.25 mg/L

Q: What about the MIC90 [10] of the same sequence?
A: 1 mg/L

Q: And the MIC50 [11]?
A: > 128 mg/L

Q: And the MIC90 [11]?
A: > 128 mg/L

Q: And the Activity [12]?
A: inactive

Q: What about the Activity [13] of the same sequence?
A: 81.8%

Q: What about the Activity [14] of the same sequence?
A: 0%

Q: What about the Activity [15] of the same sequence?
A: 98%

Q: And the MIC50 [16]?
A: 0.5 mg/L

Q: And the MIC90 [16]?
A: 1 mg/L

Q: And the Activity [17]?
A: 100%

Q: And the Activity [18]?
A: 100%

Q: And the MIC50 [19]?
A: 0.06 mg/L

Q: And the MIC90 [19]?
A: 4 mg/L

Q: And the MIC50 [20]?
A: 2 mg/L

Q: And the MIC90 [20]?
A: 4 mg/L

Q: And the Activity [21]?
A: 0%

Q: And the MIC50 [22]?
A: > 128 mg/L

Q: And the MIC90 [22]?
A: > 128 mg/L

Q: What about the MIC50 [23] of the same sequence?
A: > 128 mg/L

Q: And the MIC90 [23]?
A: > 128 mg/L

Q: What about the Activity [24] of the same sequence?
A: 0%

Q: And the MIC50 [25]?
A: 0.25 mg/L

Q: And the MIC90 [25]?
A: 0.5 mg/L

Q: And the MIC [26]?
A: 0.25 mg/L

Q: What about the MIC90 [26] of the same sequence?
A: 1 mg/L

Q: What about the MIC90 [27] of the same sequence?
A: 8 mg/L

Q: And the MIC50 [28]?
A: 128 mg/L

Q: What about the MIC90 [28] of the same sequence?
A: > 128 mg/L

Q: And the Activity [29]?
A: 0%

Q: What about the MIC50 [30] of the same sequence?
A: 0.25 mg/L

Q: What about the MIC90 [30] of the same sequence?
A: 0.5 mg/L

Q: And the MIC50 [31]?
A: 64 mg/L

Q: What about the MIC90 [31] of the same sequence?
A: 128 mg/L

Q: And the MIC50 [32]?
A: 128 mg/L

Q: What about the MIC90 [32] of the same sequence?
A: > 128 mg/L

Q: What about the Activity [33] of the same sequence?
A: 0%

Q: And the Activity [34]?
A: 0%

Q: What about the Activity [35] of the same sequence?
A: 100%

Q: And the Activity [36]?
A: 0%

Q: What about the Activity [37] of the same sequence?
A: 0%

Q: And the Activity [38]?
A: 0%

Q: And the MIC50 [39]?
A: 32 mg/L

Q: What about the MIC90 [39] of the same sequence?
A: 128 mg/L

Q: And the Activity [40]?
A: inactive

Q: And the MIC50 [41]?
A: 128 mg/L

Q: And the MIC90 [41]?
A: > 128 mg/L

Q: What about the Activity [42] of the same sequence?
A: 0%

Q: What about the Activity [43] of the same sequence?
A: 100%

Q: What about the Activity [44] of the same sequence?
A: 0%

Q: And the Activity [45]?
A: 0%

Q: And the MIC50 [46]?
A: > 128 mg/L

Q: And the MIC90 [46]?
A: > 128 mg/L

— ChEMBL document CHEMBL1275533, “In vitro antibacterial activity of vertilmicin and its susceptibility to modifications by the recombinant AAC6'-APH2'' enzyme” (2008)
